Experiments:
[1] = system: H1299 human non-small cell lung cancer-cells; test: Cancer cell viability by cellular ATP levels (ViaLight), H1299; type: cell-based; conditions: NCI-H1299, 72 h, 3 days of incubation, ATP levels relative to untreated control
Description: (§1) Selected cell lines included C33A cervical carcinoma cells and H1299 human non-small cell lung cancer-cells (American Type Culture Collection, Manassas, Va. USA), which were cultured in the media recommended by the American Type Culture Collection. The cells lines were plated in 96-well microtiter plates (PerkinElmer Life Sciences Inc, Boston, Mass., USA) at a confluency that allowed them to reach confluence after 4 days of growth. One day after plating, the cells were treated with various concentrations of Compounds. Stock solutions of the Compounds were prepared in dimethyl sulfoxide (Sigma-Aldrich Inc., St. Louis, Mo., USA), diluted in the recommended media and then added to the cells. The total dimethyl sulfoxide on the cells was 0.1%. After 3 days of incubation the ATP levels in the cells were quantified using a luminescent ViaLight detection system (Bio-Whittaker, MD, USA). The results were plotted relative to untreated control cells, which were set at a value of 100. The IC50s were determined using a best-fit sigmoidal dose response curve with variable slope.

[2] = system: C33A cervical carcinoma cells; test: Cancer cell viability by cellular ATP levels (ViaLight), C33A; type: cell-based; conditions: Homo sapiens, C-33-A, 72 h, 3 days of incubation, ATP levels relative to untreated control
Description: as §1

SMILES	IC50 [1]	IC50 [2]
COC1=CC(c2cccc([N+](=O)[O-])c2)=NC1=Cc1[nH]c(C)cc1C [Compound 12, 2-((3-methoxy-5-(3-nitrophenyl)-2H-pyrrol-2-ylidene)methyl)-3,5-dimethyl-1H-pyrrole]	14 µM	15 µM
COC1=CC(c2cnc(OC)nc2OC)=NC1=Cc1[nH]c(C)cc1C [Compound 32, 2,4-dimethoxy-5-(4-methoxy-5-((3,5-dimethyl-1H-pyrrol-2-yl)methylene)-5H-pyrrol-2-yl)pyrimidine]	6.87 µM	6.33 µM
COC1=CC(c2ccc3c(c2)OCCO3)=NC1=Cc1[nH]c(C)cc1C [Compound 23, 2-((5-(2,3-dihydrobenzo[b][1,4]dioxin-7-yl)-3-methoxy-2H-pyrrol-2-ylidene)methyl)-3,5-dimethyl-1H-pyrrole]	7.55 µM	1.6 µM
COC1=CC(c2ccc(NS(C)(=O)=O)cc2)=N/C1=C\c1[nH]c(C)cc1C [Compound 8, N-4-(4-methoxy-5-((3,5-dimethyl-1H-pyrrol-2-yl)methylene)-5H-pyrrol-2-yl)-phenyl-methylsulfonamide]	10 µM	8 µM
COC1=CC(c2ccc(COC(C)(C)C)cc2)=NC1=Cc1[nH]c(C)cc1C [Compound 41, 2-((5-(4-(tert-butoxymethyl)phenyl)-3-methoxy-2H-pyrrol-2-ylidene)methyl)-3,5-dimethyl-1H-pyrrole]	10.1 µM	4.17 µM
COC1=CC(c2ccc(Br)cc2)=NC1=Cc1[nH]c(C)cc1C [Compound 29, 2-((5-(4-bromophenyl)-3-methoxy-2H-pyrrol-2-ylidene)methyl)-3,5-dimethyl-1H-pyrrole]	6.64 µM	1.15 µM
COC1=CC(c2ccc(Cl)cc2)=NC1=Cc1[nH]c(C)cc1C [Compound 2, 5-(4-chlorophenyl)-3-methoxy-2-((3,5-dimethyl-1H-pyrrol-2-yl)methylene)-2H-pyrrole]	10 µM	2.5 µM
COC1=CC(c2ccccc2)=NC1=Cc1[nH]c(C)cc1C [Compound 1, 3-methoxy-2-((3,5-dimethyl-1H-pyrrol-2-yl)methylene)-5-phenyl-2H-pyrrole]	10 µM	10 µM
Cc1cc(C)c(C=C2N=C(c3ccc4c(c3)OCO4)C=C2OCc2ccccc2)[nH]1 [Compound 44, 5-(benzo[d][1,3]dioxol-5-yl)-3-(benzyloxy)-2-((3,5-dimethyl-1H-pyrrol-2-yl)methylene)-2H-pyrrole]	8.3 µM	2.16 µM
COC1=CC(c2ccc3cc(OC)ccc3c2)=NC1=Cc1[nH]c(C)cc1C [Compound 27, 2-((3-methoxy-5-(2-methoxynaphthalen-6-yl)-2H-pyrrol-2-ylidene)methyl)-3,5-dimethyl-1H-pyrrole]	6.26 µM	7 µM
COC1=CC(c2ccc(F)cc2)=NC1=Cc1[nH]c(C)cc1C [Compound 5, 5-(4-fluorophenyl)-3-methoxy-2-((3,5-dimethyl-1H-pyrrol-2-yl)methylene)-2H-pyrrole]	10 µM	2.2 µM
COC1=CC(c2ccco2)=NC1=Cc1[nH]c(C)cc1C [Compound 13, 2-((5-(furan-2-yl)-3-methoxy-2H-pyrrol-2-ylidene)methyl)-3,5-dimethyl-1H-pyrrole]	40 µM	2 µM
COC1=CC(c2ccc(OC)nc2)=NC1=Cc1[nH]c(C)cc1C [Compound 42, 2-methoxy-5-(4-methoxy-5-((3,5-dimethyl-1H-pyrrol-2-yl)methylene)-5H-pyrrol-2-yl)pyridine]	13.9 µM	7.9 µM
COC1=CC(c2ccc(C=O)cc2)=NC1=Cc1[nH]c(C)cc1C [Compound 9, 4-(4-methoxy-5-((3,5-dimethyl-1H-pyrrol-2-yl)methylene)-5H-pyrrol-2-yl)benzaldehyde]	21.6 µM	10.6 µM
COC1=CC(c2cccnc2Cl)=NC1=Cc1[nH]c(C)cc1C [Compound 33, 2-chloro-3-(4-methoxy-5-((3,5-dimethyl-1H-pyrrol-2-yl)methylene)-5H-pyrrol-2-yl)pyridine]	15.9 µM	8.73 µM
COC1=CC(c2ccc(OC)cc2C=O)=NC1=Cc1[nH]c(C)cc1C [Compound 11, 5-methoxy-2-(4-methoxy-5-((3,5-dimethyl-1H-pyrrol-2-yl)methylene)-5H-pyrrol-2-yl)benzaldehyde]	12.5 µM	7 µM
COC1=CC(c2cncnc2)=NC1=Cc1[nH]c(C)cc1C [Compound 35, 5-(4-methoxy-5-((3,5-dimethyl-1H-pyrrol-2-yl)methylene)-5H-pyrrol-2-yl)pyrimidine]	15.9 µM	8.96 µM
COC1=CC(c2ccc(C(=O)N3CCCC3)cc2)=NC1=Cc1[nH]c(C)cc1C [Compound 25, (4-(4-methoxy-5-((3,5-dimethyl-1H-pyrrol-2-yl)methylene)-5H-pyrrol-2-yl)phenyl)(pyrrolidin-1-yl)methanone]	16.5 µM	7.75 µM
COC1=CC(c2ccc(Br)s2)=NC1=Cc1[nH]c(C)cc1C [Compound 7, 2-((5-(5-bromothiophen-2-yl)-3-methoxy-2H-pyrrol-2-ylidene)methyl)-3,5-dimethyl-1H-pyrrole]	15 µM	9.5 µM
COC1=CC(c2ccc(OC)c(O)c2)=NC1=Cc1[nH]c(C)cc1C [Compound 38, 2-methoxy-5-(4-methoxy-5-((3,5-dimethyl-1H-pyrrol-2-yl)methylene)-5H-pyrrol-2-yl)phenol]	6.69 µM	2 µM
COC1=CC(c2cccs2)=NC1=Cc1[nH]c(C)cc1C [Compound 6, 2-((3-methoxy-5-(thiophen-2-yl)-2H-pyrrol-2-ylidene)methyl)-3,5-dimethyl-1H-pyrrole]	8.5 µM	6.5 µM
COC1=CC(c2cccc3ncccc23)=NC1=Cc1[nH]c(C)cc1C [Compound 4, 5-(4-methoxy-5-((3,5-dimethyl-1H-pyrrol-2-yl)methylene)-5H-pyrrol-2-yl)quinoline]	16.6 µM	16.6 µM

Stronger by IC50 [1], values ahead:

IC50 [1]	IC50 [2]	SMILES
0.709 µM	0.131 µM	COc1ccc(C2=NC(=Cc3[nH]c(C)cc3C)C(OCc3ccccc3)=C2)cc1OC [Compound 43, 3-(benzyloxy)-5-(3,4-dimethoxyphenyl)-2-((3,5-dimethyl-1H-pyrrol-2-yl)methylene)-2H-pyrrole]
0.668 µM	0.212 µM	COC1=CC(c2ccc3c(c2)OCC3)=NC1=Cc1[nH]c(C)cc1C [Compound 31, 2-((5-(2,3-dihydrobenzofuran-6-yl)-3-methoxy-2H-pyrrol-2-ylidene)methyl)-3,5-dimethyl-1H-pyrrole]
4.6 µM	3 µM	COC1=CC(c2cc3ccccc3s2)=NC1=Cc1[nH]c(C)cc1C [Compound 10, 2-((5-(benzo[b]thiophen-2-yl)-3-methoxy-2H-pyrrol-2-ylidene)methyl)-3,5-dimethyl-1H-pyrrole]
2.38 µM	0.627 µM	COC1=CC(c2cc(OC)c(OC)c(OC)c2)=NC1=Cc1[nH]c(C)cc1C [Compound 28, 2-((3-methoxy-5-(3,4,5-trimethoxyphenyl)-2H-pyrrol-2-ylidene)methyl)-3,5-dimethyl-1H-pyrrole]
1.24 µM	1.23 µM	COC1=CC(c2ccc3c(c2)OCCN3C)=NC1=Cc1[nH]c(C)cc1C [Compound 34, 3,4-dihydro-7-(4-methoxy-5-((3,5-dimethyl-1H-pyrrol-2-yl)methylene)-5H-pyrrol-2-yl)-4-methyl-2H-benzo[b][1,4]oxazine]
3.65 µM	0.849 µM	COC1=CC(c2ccc(OC)c(F)c2)=NC1=Cc1[nH]c(C)cc1C [Compound 26, 2-((5-(3-fluoro-4-methoxyphenyl)-3-methoxy-2H-pyrrol-2-ylidene)methyl)-3,5-dimethyl-1H-pyrrole]
1.65 µM	0.181 µM	COC1=CC(c2cnn(Cc3ccccc3)c2)=NC1=Cc1[nH]c(C)cc1C [Compound 37, 1-benzyl-4-(4-methoxy-5-((3,5-dimethyl-1H-pyrrol-2-yl)methylene)-5H-pyrrol-2-yl)-1H-pyrazole]
5.69 µM	1.2 µM	COC1=CC(c2cccnc2OC)=NC1=Cc1[nH]c(C)cc1C [Compound 30, 2-methoxy-3-(4-methoxy-5-((3,5-dimethyl-1H-pyrrol-2-yl)methylene)-5H-pyrrol-2-yl)pyridine]
0.55 µM	0.21 µM	COC1=CC(c2ccc3c(c2)OCO3)=NC1=Cc1[nH]c(C)cc1C [Compound 20, 2-((5-(benzo[d][1,3]dioxol-5-yl)-3-methoxy-2H-pyrrol-2-ylidene)methyl)-3,5-dimethyl-1H-pyrrole]
4.5 µM	3 µM	COC1=CC(c2ccc(OC)cc2OC)=NC1=Cc1[nH]c(C)cc1C [Compound 16, 2-((3-methoxy-5-(2,4-dimethoxyphenyl)-2H-pyrrol-2-ylidene)methyl)-3,5-dimethyl-1H-pyrrole]
0.58 µM	0.21 µM	COC1=CC(c2ccc(OC)c(OC)c2)=NC1=Cc1[nH]c(C)cc1C [Compound 17, 2-((3-methoxy-5-(3,4-dimethoxyphenyl)-2H-pyrrol-2-ylidene)methyl)-3,5-dimethyl-1H-pyrrole]
1.34 µM	0.69 µM	COC1=CC(c2ccc(OCCN3CCCC3)cc2)=NC1=Cc1[nH]c(C)cc1C [Compound 21, 2-((5-(4-(2-(pyrrolidin-1-yl)ethoxy)phenyl)-3-methoxy-2H-pyrrol-2-ylidene)methyl)-3,5-dimethyl-1H-pyrrole]
